Values of other authors, collected in US20130142871A1, “ORAL DOSAGE FORM OF DEFERASIROX” (Ratiopharm GmbH, priority 2010, published 2013).

Conditions: see WO 2007/045445, page 2, third paragraph

solubility in water: poorly soluble in water
Structure (SMILES): O=C(O)c1ccc(-n2nc(-c3ccccc3O)nc2-c2ccccc2O)cc1 [Deferasirox, 4-[(3Z,5E)-3,5-bis(6-oxo-1-cyclohexa-2,4-dienylidene)-1,2,4-triazolidine-1-yl]benzoic acid]
